Source: PMC4979471 (Cell Death Discovery, 2015)
Where two headings read alike, the source gives them in different places.

Columns and labels:
Test in all cases: Kinase selectivity, P33-radiolabeled assay
Assay type in all cases: biochemical
Conditions in all cases: 10 μM ATP
ITK = molecular target: T1, ITK (Homo sapiens, UniProt Q08881)
T1 construct: purchased Reaction Biology Corp
T1 sequence (Q08881 1-620): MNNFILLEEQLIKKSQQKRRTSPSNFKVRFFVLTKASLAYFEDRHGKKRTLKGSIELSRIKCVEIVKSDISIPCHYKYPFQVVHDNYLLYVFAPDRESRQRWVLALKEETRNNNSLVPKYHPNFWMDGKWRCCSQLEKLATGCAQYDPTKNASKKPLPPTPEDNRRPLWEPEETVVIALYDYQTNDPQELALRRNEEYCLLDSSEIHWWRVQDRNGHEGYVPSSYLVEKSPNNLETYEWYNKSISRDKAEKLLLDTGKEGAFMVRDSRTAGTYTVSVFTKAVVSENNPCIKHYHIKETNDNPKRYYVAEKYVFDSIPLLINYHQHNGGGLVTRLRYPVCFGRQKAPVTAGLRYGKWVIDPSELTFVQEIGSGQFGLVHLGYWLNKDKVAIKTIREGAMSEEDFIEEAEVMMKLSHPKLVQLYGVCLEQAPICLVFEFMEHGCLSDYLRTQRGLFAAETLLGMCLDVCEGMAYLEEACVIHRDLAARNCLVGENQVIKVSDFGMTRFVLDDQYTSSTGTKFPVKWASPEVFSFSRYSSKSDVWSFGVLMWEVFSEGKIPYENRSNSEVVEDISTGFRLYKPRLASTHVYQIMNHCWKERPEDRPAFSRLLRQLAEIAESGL
Method in brief: (§1)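 Percent residual kinase activity versus DMSO is reported. Conditions: compound at 10 μM, ATP at 10 μM, n = 2.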

BTK = molecular target: T2, BTK (Homo sapiens, UniProt Q06187)
T2 construct: purchased Reaction Biology Corp
Method in brief: as §1

PKAcg = molecular target: T3, PKAcg (Homo sapiens, UniProt P22612)
T3 construct: purchased Reaction Biology Corp
Method in brief: as §1

CDK1/cyclin B = molecular target: T4, CDK1/cyclin B (Homo sapiens, UniProt P06493)
T4 construct: purchased Reaction Biology Corp
Method in brief: as §1

CDK1/cyclin E = molecular target: T5, CDK1/cyclin E (Homo sapiens, UniProt P06493)
T5 construct: purchased Reaction Biology Corp
Method in brief: as §1

CAMK2d = molecular target: T6, CAMK2d (Homo sapiens, UniProt Q13557)
T6 construct: purchased Reaction Biology Corp
Method in brief: as §1

ARK5/NUAK1 = molecular target: T7, ARK5/NUAK1 (Homo sapiens, UniProt O60285)
T7 construct: purchased Reaction Biology Corp
T7 sequence (O60285 1-661): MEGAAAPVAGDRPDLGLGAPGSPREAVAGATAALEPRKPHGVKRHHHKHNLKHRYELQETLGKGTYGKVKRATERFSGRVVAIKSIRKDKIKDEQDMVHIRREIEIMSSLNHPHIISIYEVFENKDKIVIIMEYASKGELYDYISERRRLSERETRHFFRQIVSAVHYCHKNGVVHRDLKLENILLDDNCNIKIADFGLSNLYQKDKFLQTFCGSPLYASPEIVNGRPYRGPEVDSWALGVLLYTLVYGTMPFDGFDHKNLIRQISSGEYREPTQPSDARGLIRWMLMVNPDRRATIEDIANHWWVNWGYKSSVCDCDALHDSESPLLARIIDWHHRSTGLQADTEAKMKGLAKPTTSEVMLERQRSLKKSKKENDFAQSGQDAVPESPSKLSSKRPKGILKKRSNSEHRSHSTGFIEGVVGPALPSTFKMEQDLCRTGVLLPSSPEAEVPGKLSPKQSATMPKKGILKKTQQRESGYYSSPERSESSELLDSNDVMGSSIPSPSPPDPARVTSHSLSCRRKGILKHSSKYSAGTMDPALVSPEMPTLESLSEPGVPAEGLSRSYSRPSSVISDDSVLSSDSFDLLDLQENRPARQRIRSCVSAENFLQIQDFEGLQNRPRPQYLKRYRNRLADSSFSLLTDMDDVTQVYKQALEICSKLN
Method in brief: as §1

MST3/STK24 = molecular target: T8, MST3/STK24 (Homo sapiens, UniProt Q9Y6E0)
T8 construct: purchased Reaction Biology Corp
Method in brief: as §1

CK1g3 = molecular target: T9, CK1g3 (Homo sapiens, UniProt Q9Y6M4)
T9 construct: purchased Reaction Biology Corp
Method in brief: as §1

DYRK4 = molecular target: T10, DYRK4 (Homo sapiens, UniProt Q9NR20)
T10 construct: purchased Reaction Biology Corp
T10 sequence (Q9NR20 1-520): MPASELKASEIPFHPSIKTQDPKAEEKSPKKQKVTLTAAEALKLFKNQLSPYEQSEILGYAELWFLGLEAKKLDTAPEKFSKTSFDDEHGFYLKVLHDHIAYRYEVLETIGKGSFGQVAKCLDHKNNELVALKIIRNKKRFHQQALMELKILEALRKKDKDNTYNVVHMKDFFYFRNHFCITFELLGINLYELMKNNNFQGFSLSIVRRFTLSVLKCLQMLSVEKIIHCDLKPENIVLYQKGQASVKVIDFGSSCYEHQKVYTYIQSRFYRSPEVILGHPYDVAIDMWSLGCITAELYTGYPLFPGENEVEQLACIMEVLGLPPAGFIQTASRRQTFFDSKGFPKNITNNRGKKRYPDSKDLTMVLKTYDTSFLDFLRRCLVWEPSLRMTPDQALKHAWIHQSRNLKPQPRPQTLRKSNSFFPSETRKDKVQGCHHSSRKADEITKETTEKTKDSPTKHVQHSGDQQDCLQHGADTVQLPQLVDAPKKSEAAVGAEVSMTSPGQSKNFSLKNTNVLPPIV
Method in brief: as §1

ROCK2 = molecular target: T11, ROCK2 (Homo sapiens, UniProt O75116)
T11 construct: purchased Reaction Biology Corp
Method in brief: as §1

PDGFRa = molecular target: T12, PDGFRa (Homo sapiens, UniProt P16234)
T12 construct: purchased Reaction Biology Corp
Method in brief: as §1

[1] = read-out: % Enzyme Activity (relative to DMSO controls) AVG
[2] = read-out: % Enzyme Activity (relative to DMSO controls) Data 1
[3] = read-out: % Enzyme Activity (relative to DMSO controls) Data 2

T12 sequence (P16234 24-1089): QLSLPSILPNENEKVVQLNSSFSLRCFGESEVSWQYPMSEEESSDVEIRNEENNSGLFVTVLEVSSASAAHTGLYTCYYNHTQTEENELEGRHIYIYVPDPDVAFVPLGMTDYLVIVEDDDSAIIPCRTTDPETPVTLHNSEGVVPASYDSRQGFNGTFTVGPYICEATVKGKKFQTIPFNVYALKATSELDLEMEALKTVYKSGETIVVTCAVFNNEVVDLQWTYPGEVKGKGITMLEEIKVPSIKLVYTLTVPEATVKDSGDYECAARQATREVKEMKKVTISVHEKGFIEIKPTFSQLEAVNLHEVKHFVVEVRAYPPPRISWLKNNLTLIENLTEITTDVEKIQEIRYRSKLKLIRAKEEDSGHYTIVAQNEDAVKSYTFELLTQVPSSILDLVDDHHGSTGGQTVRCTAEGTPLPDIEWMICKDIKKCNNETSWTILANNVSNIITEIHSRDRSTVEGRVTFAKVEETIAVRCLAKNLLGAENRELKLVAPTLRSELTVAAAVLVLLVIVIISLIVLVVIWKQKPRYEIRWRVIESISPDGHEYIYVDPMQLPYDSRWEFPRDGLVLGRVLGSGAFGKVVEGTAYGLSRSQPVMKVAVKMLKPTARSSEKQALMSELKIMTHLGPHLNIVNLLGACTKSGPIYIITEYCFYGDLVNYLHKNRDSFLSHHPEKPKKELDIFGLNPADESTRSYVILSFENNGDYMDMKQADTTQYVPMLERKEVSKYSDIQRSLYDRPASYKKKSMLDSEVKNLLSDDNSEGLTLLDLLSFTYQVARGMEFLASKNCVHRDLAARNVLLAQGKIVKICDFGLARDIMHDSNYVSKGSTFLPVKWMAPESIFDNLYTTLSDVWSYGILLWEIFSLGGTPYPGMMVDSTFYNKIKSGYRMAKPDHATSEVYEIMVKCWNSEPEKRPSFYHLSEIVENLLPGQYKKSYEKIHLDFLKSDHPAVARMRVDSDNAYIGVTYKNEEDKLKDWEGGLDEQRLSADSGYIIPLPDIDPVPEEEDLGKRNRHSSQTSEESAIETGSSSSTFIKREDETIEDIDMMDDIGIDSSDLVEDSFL
T8 sequence (Q9Y6E0 whole entry): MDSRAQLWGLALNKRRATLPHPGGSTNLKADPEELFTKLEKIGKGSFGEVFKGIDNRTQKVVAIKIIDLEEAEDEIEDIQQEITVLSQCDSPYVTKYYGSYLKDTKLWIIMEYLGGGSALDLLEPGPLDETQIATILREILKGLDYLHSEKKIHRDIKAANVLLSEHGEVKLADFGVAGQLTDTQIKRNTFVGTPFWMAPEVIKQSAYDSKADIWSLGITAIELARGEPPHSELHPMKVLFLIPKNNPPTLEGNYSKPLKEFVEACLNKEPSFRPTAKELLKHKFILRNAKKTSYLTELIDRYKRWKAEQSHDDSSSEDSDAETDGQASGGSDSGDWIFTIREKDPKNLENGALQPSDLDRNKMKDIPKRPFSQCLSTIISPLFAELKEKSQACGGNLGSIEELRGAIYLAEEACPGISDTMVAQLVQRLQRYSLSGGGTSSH
T11 sequence (O75116 whole entry): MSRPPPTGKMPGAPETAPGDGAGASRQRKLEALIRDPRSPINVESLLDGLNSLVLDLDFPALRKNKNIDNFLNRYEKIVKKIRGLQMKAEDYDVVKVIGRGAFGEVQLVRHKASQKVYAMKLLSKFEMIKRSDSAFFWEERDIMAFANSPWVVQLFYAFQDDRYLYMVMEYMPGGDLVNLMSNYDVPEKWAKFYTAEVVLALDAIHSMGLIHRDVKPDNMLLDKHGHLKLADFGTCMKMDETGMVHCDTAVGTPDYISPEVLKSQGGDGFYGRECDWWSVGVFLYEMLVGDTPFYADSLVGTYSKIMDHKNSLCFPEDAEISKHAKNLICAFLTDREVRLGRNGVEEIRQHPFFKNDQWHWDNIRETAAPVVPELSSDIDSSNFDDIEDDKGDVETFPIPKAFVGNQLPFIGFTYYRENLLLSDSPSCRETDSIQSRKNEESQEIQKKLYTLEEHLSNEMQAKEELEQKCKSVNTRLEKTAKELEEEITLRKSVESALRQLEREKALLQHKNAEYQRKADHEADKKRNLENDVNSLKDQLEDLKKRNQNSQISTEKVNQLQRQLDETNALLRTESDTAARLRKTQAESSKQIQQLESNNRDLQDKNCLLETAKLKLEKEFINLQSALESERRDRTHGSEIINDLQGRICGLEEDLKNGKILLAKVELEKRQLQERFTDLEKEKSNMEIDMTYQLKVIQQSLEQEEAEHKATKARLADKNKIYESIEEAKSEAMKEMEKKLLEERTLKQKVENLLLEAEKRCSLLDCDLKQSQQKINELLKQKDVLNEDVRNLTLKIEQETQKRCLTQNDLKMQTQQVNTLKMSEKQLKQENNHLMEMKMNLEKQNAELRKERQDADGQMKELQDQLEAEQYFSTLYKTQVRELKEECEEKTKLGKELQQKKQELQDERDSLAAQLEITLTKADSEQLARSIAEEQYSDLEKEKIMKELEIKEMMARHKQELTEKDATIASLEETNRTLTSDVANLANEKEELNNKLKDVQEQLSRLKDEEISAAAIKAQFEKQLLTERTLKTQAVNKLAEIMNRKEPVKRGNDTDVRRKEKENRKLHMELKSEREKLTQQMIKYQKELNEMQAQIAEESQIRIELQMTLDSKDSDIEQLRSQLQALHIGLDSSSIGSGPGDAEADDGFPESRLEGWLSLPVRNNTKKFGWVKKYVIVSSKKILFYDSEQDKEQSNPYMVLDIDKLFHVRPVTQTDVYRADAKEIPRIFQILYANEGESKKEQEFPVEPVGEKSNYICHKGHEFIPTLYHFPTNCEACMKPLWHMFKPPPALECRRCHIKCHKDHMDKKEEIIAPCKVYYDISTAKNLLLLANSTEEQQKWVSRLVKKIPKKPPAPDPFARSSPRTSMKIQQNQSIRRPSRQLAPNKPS
T5 sequence (P06493 whole entry): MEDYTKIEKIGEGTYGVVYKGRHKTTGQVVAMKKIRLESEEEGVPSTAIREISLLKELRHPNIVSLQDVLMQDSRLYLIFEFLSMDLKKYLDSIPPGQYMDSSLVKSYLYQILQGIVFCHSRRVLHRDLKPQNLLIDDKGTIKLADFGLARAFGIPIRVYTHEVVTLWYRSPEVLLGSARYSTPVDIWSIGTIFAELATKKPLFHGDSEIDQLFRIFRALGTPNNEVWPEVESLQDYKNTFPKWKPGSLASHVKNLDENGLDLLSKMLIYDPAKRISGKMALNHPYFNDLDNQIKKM
T5 sequence (P24864 whole entry partner): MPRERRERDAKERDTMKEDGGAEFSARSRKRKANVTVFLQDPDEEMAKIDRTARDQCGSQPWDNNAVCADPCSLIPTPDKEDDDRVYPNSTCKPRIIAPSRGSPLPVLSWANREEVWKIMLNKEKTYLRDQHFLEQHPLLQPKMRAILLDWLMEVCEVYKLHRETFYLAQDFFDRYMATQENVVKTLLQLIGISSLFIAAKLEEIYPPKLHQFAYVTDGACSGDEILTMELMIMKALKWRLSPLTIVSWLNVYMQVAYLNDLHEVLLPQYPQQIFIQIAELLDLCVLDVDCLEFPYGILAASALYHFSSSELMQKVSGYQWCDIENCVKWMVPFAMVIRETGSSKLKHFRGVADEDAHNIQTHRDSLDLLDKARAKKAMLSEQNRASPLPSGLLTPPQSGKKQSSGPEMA
T4 sequence (P06493 whole entry): as the sequence (P06493 whole entry) above
T4 sequence (P14635 whole entry partner): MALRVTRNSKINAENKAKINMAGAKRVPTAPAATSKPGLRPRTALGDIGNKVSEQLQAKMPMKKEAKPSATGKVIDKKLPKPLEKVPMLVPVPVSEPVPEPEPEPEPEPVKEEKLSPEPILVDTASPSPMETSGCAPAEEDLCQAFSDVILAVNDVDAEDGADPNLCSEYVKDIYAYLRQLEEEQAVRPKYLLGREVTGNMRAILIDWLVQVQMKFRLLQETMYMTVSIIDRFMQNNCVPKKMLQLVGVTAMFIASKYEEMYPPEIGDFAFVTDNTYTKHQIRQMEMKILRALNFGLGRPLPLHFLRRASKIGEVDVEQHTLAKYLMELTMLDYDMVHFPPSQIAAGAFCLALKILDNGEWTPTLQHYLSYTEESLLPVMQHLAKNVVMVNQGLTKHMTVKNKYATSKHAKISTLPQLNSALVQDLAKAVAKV
T2 sequence (Q06187 whole entry): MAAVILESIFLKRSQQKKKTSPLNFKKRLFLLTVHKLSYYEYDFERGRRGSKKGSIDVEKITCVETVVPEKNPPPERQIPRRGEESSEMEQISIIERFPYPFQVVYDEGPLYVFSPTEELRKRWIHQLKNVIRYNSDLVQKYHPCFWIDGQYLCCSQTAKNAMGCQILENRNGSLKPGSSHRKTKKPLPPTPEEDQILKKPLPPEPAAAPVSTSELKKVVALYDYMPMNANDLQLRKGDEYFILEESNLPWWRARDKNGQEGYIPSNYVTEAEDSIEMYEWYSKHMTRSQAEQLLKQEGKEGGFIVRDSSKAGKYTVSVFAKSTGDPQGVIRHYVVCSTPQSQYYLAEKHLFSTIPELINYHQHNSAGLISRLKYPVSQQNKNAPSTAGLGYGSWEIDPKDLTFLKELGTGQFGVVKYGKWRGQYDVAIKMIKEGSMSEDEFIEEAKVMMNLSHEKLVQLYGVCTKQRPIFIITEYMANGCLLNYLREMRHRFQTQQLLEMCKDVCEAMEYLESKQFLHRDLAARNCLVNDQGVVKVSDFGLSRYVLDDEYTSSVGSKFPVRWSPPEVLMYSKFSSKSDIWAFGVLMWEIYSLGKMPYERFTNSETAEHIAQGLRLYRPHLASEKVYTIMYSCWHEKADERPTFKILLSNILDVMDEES

Q: Which remaining activity at 10 µM (ITK; [1]) does the source give for `CC(C)(C)C(=O)N1N=CC[C@H]1c1ccccc1` [GSK′963] here?
A: The remaining activity at 10 µM was 102%.

Q: And the remaining activity at 10 µM (ITK; [2])?
A: Its remaining activity at 10 µM is 95.2%.

Q: What about the remaining activity at 10 µM (ITK; [3]) of the same compound?
A: The remaining activity at 10 µM was 108%.

Q: What about the remaining activity at 10 µM (BTK; [1]) of the same compound?
A: Its remaining activity at 10 µM is 95.6%.

Q: And the remaining activity at 10 µM (BTK; [2])?
A: Its remaining activity at 10 µM is 95%.

Q: What about the remaining activity at 10 µM (BTK; [3]) of the same compound?
A: Its remaining activity at 10 µM is 96.1%.

Q: What about the remaining activity at 10 µM (PKAcg; [1]) of the same compound?
A: Its remaining activity at 10 µM is 122%.

Q: What about the remaining activity at 10 µM (PKAcg; [2]) of the same compound?
A: The remaining activity at 10 µM was 123%.

Q: And the remaining activity at 10 µM (PKAcg; [3])?
A: Its remaining activity at 10 µM is 122%.

Q: And the remaining activity at 10 µM (CDK1/cyclin B; [1])?
A: Its remaining activity at 10 µM is 88.6%.

Q: What about the remaining activity at 10 µM (CDK1/cyclin B; [2]) of the same compound?
A: The remaining activity at 10 µM was 84%.

Q: And the remaining activity at 10 µM (CDK1/cyclin B; [3])?
A: The remaining activity at 10 µM was 93.2%.

Q: And the remaining activity at 10 µM (CDK1/cyclin E; [1])?
A: The remaining activity at 10 µM was 98.2%.

Q: And the remaining activity at 10 µM (CDK1/cyclin E; [2])?
A: Its remaining activity at 10 µM is 102%.

Q: What about the remaining activity at 10 µM (CDK1/cyclin E; [3]) of the same compound?
A: The remaining activity at 10 µM was 94.7%.

Q: What about the remaining activity at 10 µM (CAMK2d; [1]) of the same compound?
A: Its remaining activity at 10 µM is 108%.

Q: And the remaining activity at 10 µM (CAMK2d; [2])?
A: The remaining activity at 10 µM was 109%.

Q: And the remaining activity at 10 µM (CAMK2d; [3])?
A: The remaining activity at 10 µM was 108%.

Q: And the remaining activity at 10 µM (ARK5/NUAK1; [1])?
A: Its remaining activity at 10 µM is 98%.

Q: And the remaining activity at 10 µM (ARK5/NUAK1; [2])?
A: Its remaining activity at 10 µM is 95.8%.

Q: What about the remaining activity at 10 µM (ARK5/NUAK1; [3]) of the same compound?
A: Its remaining activity at 10 µM is 100%.

Q: What about the remaining activity at 10 µM (MST3/STK24; [1]) of the same compound?
A: The remaining activity at 10 µM was 87.4%.

Q: And the remaining activity at 10 µM (MST3/STK24; [2])?
A: The remaining activity at 10 µM was 87.3%.

Q: And the remaining activity at 10 µM (MST3/STK24; [3])?
A: Its remaining activity at 10 µM is 87.5%.

Q: And the remaining activity at 10 µM (CK1g3; [1])?
A: Its remaining activity at 10 µM is 98.4%.

Q: What about the remaining activity at 10 µM (CK1g3; [2]) of the same compound?
A: Its remaining activity at 10 µM is 97.8%.

Q: And the remaining activity at 10 µM (CK1g3; [3])?
A: Its remaining activity at 10 µM is 99%.

Q: And the remaining activity at 10 µM (DYRK4; [1])?
A: The remaining activity at 10 µM was 101%.

Q: And the remaining activity at 10 µM (DYRK4; [2])?
A: Its remaining activity at 10 µM is 101%.

Q: And the remaining activity at 10 µM (DYRK4; [3])?
A: The remaining activity at 10 µM was 101%.

Q: And the remaining activity at 10 µM (ROCK2; [1])?
A: Its remaining activity at 10 µM is 98%.

Q: What about the remaining activity at 10 µM (ROCK2; [2]) of the same compound?
A: Its remaining activity at 10 µM is 99%.

Q: What about the remaining activity at 10 µM (ROCK2; [3]) of the same compound?
A: The remaining activity at 10 µM was 97.1%.

Q: What about the remaining activity at 10 µM (PDGFRa; [1]) of the same compound?
A: Its remaining activity at 10 µM is 104%.

Q: And the remaining activity at 10 µM (PDGFRa; [2])?
A: Its remaining activity at 10 µM is 101%.

Q: What about the remaining activity at 10 µM (PDGFRa; [3]) of the same compound?
A: The remaining activity at 10 µM was 106%.
